Results as given in US7109354B2, “Thiophene amidines, compositions thereof, and methods of treating complement-mediated diseases and conditions” (3-Dimensional Pharmaceuticals, Inc., priority 2002, dated 2006).
pKi: −log10 of the molar value. Counter-ions that a name gives are not always drawn.

Molecular target: T1, Activated human C1s (Homo sapiens, UniProt P09871)
T1 construct: purchased Calbiochem (La Jolla, Calif.)
T1 sequence (P09871 438-688 limits assumed): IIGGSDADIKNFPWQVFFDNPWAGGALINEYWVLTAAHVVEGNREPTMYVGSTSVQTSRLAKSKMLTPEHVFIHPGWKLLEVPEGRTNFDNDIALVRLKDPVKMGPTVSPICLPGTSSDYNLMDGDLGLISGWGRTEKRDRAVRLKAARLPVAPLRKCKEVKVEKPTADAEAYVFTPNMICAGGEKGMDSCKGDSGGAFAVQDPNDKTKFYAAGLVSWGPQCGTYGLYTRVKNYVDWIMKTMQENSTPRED
T1 sequence (P09871 16-437 partner limits assumed): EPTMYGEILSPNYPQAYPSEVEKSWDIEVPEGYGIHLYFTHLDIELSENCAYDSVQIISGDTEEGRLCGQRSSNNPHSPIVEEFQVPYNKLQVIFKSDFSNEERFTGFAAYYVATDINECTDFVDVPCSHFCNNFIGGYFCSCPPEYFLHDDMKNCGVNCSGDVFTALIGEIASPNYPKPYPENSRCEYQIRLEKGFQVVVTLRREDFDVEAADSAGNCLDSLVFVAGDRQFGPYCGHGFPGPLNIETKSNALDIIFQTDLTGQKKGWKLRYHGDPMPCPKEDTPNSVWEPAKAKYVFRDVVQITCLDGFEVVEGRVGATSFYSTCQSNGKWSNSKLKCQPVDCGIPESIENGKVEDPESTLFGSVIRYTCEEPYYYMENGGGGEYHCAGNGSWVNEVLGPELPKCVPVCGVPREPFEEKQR
Assay: In vitro inhibition of C1s (Ki determination, C1s-catalyzed hydrolysis of Z-Gly-Arg-S-Bzl, DTNB readout)
Type: biochemical
Details: substrate Z-Gly-Arg-S-Bzl 45 μM, DTNB 200 μM, C1s 2.3 nM, pH 7.5, 37° C., absorbance at 405 nm

pKi, 7.64 to 8.22:
CSc1sc(C(=N)N)cc1S(=O)(=O)c1cccc(-c2c(C)cccc2NC(=O)CCCS(C)(=O)=O)c1 [Example 209, N-[3′-(5-Carbamimidoyl-2-methylsulfanyl-thiophene-3-sulfonyl)-6-methyl-biphenyl-2-yl]-4-methanesulfonyl-butyramide trifluoroacetate]
CSc1sc(C(=N)N)cc1S(=O)(=O)c1cccc(-c2c(C)cccc2NC(=O)CCCS(N)(=O)=O)c1 [Example 210, N-[3′-(5-Carbamimidoyl-2-methylsulfanyl-thiophene-3-sulfonyl)-6-methyl-biphenyl-2-yl]-4-sulfamoyl-butyramide trifluoroacetate]
CSc1sc(C(=N)N)cc1S(=O)(=O)c1cccc(-c2c(C)cccc2NC(=O)CCCCCCCCCCN)c1 [Example 211, 11-Amino-undecanoic acid [3′-(5-carbamimidoyl-2-methylsulfanyl-thiophene-3-sulfonyl)-6-methyl-biphenyl-2-yl]-amide bistrifluoroacetate]
CSc1sc(C(=N)N)cc1S(=O)(=O)c1cccc(-c2ccc(F)cc2C)c1 [Example 219, 4-(4′-Fluoro-2′-methyl-biphenyl-3-sulfonyl)-5-methylsulfanyl-thiophene-2-carboxamidine trifluoroacetate]
CSc1sc(C(=N)N)cc1S(=O)(=O)c1cccc(-c2ccc(N)cc2C)c1 [Example 220, 4-(4′-Amino-2′-methyl-biphenyl-3-sulfonyl)-5-methylsulfanyl-thiophene-2-carboxamidine bis-trifluoroacetate]
CSc1sc(C(=N)N)cc1S(=O)(=O)c1cccc(-c2c(C)cc(O)cc2C)c1 [Example 224, 4-(4′-Hydroxy-2′,6′-dimethyl-biphenyl-3-sulfonyl)-5-methylsulfanyl-thiophene-2-carboxamidine trifluoroacetate]
CSc1sc(C(=N)N)cc1S(=O)(=O)c1cccc(-c2ccc(NC(N)=O)cc2C)c1 [Example 228, 5-Methylsulfanyl-4-(2 ′-methyl-4′-ureido-biphenyl-3-sulfonyl)-thiophene-2-carboxamidine trifluoroacetate]
CSc1sc(C(=N)N)cc1S(=O)(=O)c1cccc(-c2ccc(NC(=O)[C@@H](N)CCC(=O)O)cc2C)c1 [Example 231, 4-Amino-4-[3′-(5-carbamimidoyl-2-methylsulfanyl-thiophene-3-sulfonyl)-2-methyl-biphenyl-4-ylcarbamoyl]-butyric acid bis-trifluoroacetate]
CSc1sc(C(=N)N)cc1S(=O)(=O)c1cccc(-c2ccc(NC3=NCCN3)cc2C)c1 [Example 233, 4-[4′-(4,5-Dihydro-1H-imidazol-2-ylamino)-2′-methyl-biphenyl-3-sulfonyl]-5-methylsulfanyl-thiophene-2-carboxamidine bis-trifluoroacetate]
CSc1sc(C(=N)N)cc1S(=O)(=O)c1cccc(-c2c(C)cc(NC(=N)N)cc2[N+](=O)[O-])c1 [Example 236, 4-(4′-Guanidino-2′-methyl-6′-nitro-biphenyl-3-sulfonyl)-5-methylsulfanyl-thiophene-2-carboxamidine bis-trifluoroacetate]
CSc1sc(C(=N)N)cc1S(=O)(=O)c1cccc(-c2c(C)cc(NC(=N)N)cc2N)c1 [Example 237, 4-(6′-Amino-4′-guanidino-2′-methyl-biphenyl-3-sulfonyl)-5-methylsulfanyl-thiophene-2-carboxamidine bis-trifluoroacetate]
COC(=O)CCSCC(=O)Nc1cc(NC(=N)N)cc(C)c1-c1cccc(S(=O)(=O)c2cc(C(=N)N)sc2SC)c1 [Example 238, 3-{[3′-(5-Carbamimidoyl-2-methylsulfanyl-thiophene-3-sulfonyl)-4-guanidino-6-methyl-biphenyl-2-ylcarbamoyl]-methylsulfanyl}-propionic acid methyl ester bis-trifluoroacetate]
CSc1sc(C(=N)N)cc1S(=O)(=O)c1cccc(-c2c(C)cc(NC(=N)N)cc2NC(=O)CSCCC(=O)O)c1 [Example 239, 3-{[3′-(5-Carbamimidoyl-2-methylsulfanyl-thiophene-3-sulfonyl)-4-guanidino-6-methyl-biphenyl-2-ylcarbamoyl]-methylsulfanyl}-propionic acid bis-trifluoroacetate]
CSc1sc(C(=N)N)cc1S(=O)(=O)c1cccc(-c2c(C)cccc2NC(=O)NCCCCCC(=O)O)c1 [Example 240, 6-{3-[3′-(5-Carbamimidoyl-2-methylsulfanyl-thiophene-3-sulfonyl)-6-methyl-biphenyl-2-yl]-ureido}-hexanoic acid trifluoroacetate]
CSc1sc(C(=N)N)cc1S(=O)(=O)c1cccc(-c2c(C)cccc2NC(=O)NCCc2ccccc2)c1 [Example 242, 4-[2′-Methyl-6′-(3-phenethyl-ureido)-biphenyl-3-sulfonyl]-5-methylsulfanyl-thiophene-2-carboxamidine trifluoroacetate]
CSc1sc(C(=N)N)cc1S(=O)(=O)c1cccc(-c2c(C)cccc2NC(=O)CSCC(N)=O)c1 [Example 246, 2-{[3′-(5-Carbamimidoyl-2-methylsulfanyl-thiophene-3-sulfonyl)-6-methyl-biphenyl-2-ylcarbamoyl]-methylsulfanyl}-acetamide trifluoroacetate]
COc1cc(C)c(-c2cccc(S(=O)(=O)c3cc(C(=N)N)sc3SC)c2)c(NC(=O)CSCCC(=O)O)c1 [Example 252, 3-{[3′-(5-Carbamimidoyl-2-methylsulfanyl-thiophene-3-sulfonyl)-4-methoxy-6-methyl-biphenyl-2-ylcarbamoyl]-methylsulfanyl}-propionic acid trifluoroacetate]
COc1cc(C)c(-c2cccc(S(=O)(=O)c3cc(C(=N)N)sc3SC)c2)c(NC(=O)CS(C)(=O)=O)c1 [Example 254, N-[3′-(5-Carbamimidoyl-2-methylsulfanyl-thiophene-3-sulfonyl)-4-methoxy-6-methyl-biphenyl-2-yl]-2-methanesulfonyl-acetamide trifluoroacetate]
COc1cc(C)c(-c2cccc(S(=O)(=O)c3cc(C(=N)N)sc3SC)c2)c(NC(=O)CCCCCS(C)(=O)=O)c1 [Example 255, 6-Methanesulfonyl-hexanoic acid[3′-(5-carbamimidoyl-2-methylsulfanyl-thiophene-3-sulfonyl)-4-methoxy-6-methyl-biphenyl-2-yl]-amide trifluoroacetate]
COc1cc(C)c(-c2cccc(S(=O)(=O)c3cc(C(=N)N)sc3SC)c2)c(NC(=O)CCS(C)(=O)=O)c1 [Example 256, N-[3′-(5-Carbamimidoyl-2-methylsulfanyl-thiophene-3-sulfonyl)-4-methoxy-6-methyl-biphenyl-2-yl]-3-methanesulfonyl-propionamide trifluoroacetate]
CSc1sc(C(=N)N)cc1S(=O)(=O)c1cccc(-c2c(C)cccc2NC(=O)CS(C)(=O)=O)c1 [Example 257, N-[3′-(5-Carbamimidoyl-2-methylsulfanyl-thiophene-3-sulfonyl)-6-methyl-biphenyl-2-yl]-2-methanesulfonyl-acetamide trifluoroacetate]
CSc1sc(C(=N)N)cc1S(=O)(=O)c1cccc(-c2c(C)cccc2NC(=O)C(C)S(C)(=O)=O)c1 (centres unmarked) [Example 258, N-[3′-(5-Carbamimidoyl-2-methylsulfanyl-thiophene-3-sulfonyl)-6-methyl-biphenyl-2-yl]-2-methanesulfonyl-propionamide trifluoroacetate]
CSc1sc(C(=N)N)cc1S(=O)(=O)c1cccc(-c2c(C)cc(NC(=N)N)cc2NC(=O)CCCS(C)(=O)=O)c1 [Example 260, N-[3′-(5-Carbamimidoyl-2-methylsulfanyl-thiophene-3-sulfonyl)-4-guanidino-6-methyl-biphenyl-2-yl]-4-methanesulfonyl-butyramide bis-trifluoroacetate]
CSc1sc(C(=N)N)cc1S(=O)(=O)c1cccc(-c2c(C)cc(NC(=N)N)cc2NC(=O)CCCCC(=O)O)c1 [Example 261, 5-[3′-(5-Carbamimidoyl-2-methylsulfanyl-thiophene-3-sulfonyl)-4-guanidino-6-methyl-biphenyl-2-ylcarbamoyl]-pentanoic acid bis-trifluoroacetate]
CSc1sc(C(=N)N)cc1S(=O)(=O)c1cccc(-c2ccc(N(C)C(=N)N)cc2C)c1 [Example 262, 4-[2′-Methyl-4′-(N-methyl-guanidino)-biphenyl-3-sulfonyl]-5-methylsulfanyl-thiophene-2-carboxamidine bis-trifluoroacetate]
CSc1sc(C(=N)N)cc1S(=O)(=O)c1cccc(-c2ccc(NC(=N)NCCCCCC(=O)O)cc2C)c1 [Example 263, 6-{N′-[3′-(5-Carbamimidoyl-2-methylsulfanyl-thiophene-3-sulfonyl)-2-methyl-biphenyl-4-yl]-guanidino}-hexanoic acid]
